Reference: patent publication US20190365719A1, “COMBINATION TREATMENTS OF HSP90 INHIBITORS FOR ENHANCING TUMOR IMMUNOGENICITY AND METHODS OF USE THEREOF” (Massachusetts Institute of Technology, priority 2018, published 2019)

Key:
MC38 cells = experiment: MHC Class I peptide profiling of MC38 cells by immunoprecipitation and mass spectrometry; format: cell-based, mouse
Experimental: MC38 cells were cultured as described above. 10-10 cm (˜1×10^8 cells) plates of MC38 cells were cultured for 72 hours in 0.1% DMSO or 50 nM HSP990. At the time of harvest, plates were washed 1× in PBS, and then cells were lifted using PBS+2 mM EDTA. Cells were then pelleted at 500 g for 5 min and the pellets washed twice more with ice cold PBS. Pellets were then resuspended in 1 mL IP lysis buffer ([…] Tris pH 7.5, 150 mM NaCl, 1% CHAPS, 0.2 mM PMSF, 1× HALT protease/phosphatase inhibitors (Pierce). Lysates were then sonicated with a microtip sonicator for 3×10 s pulses to further disrupt cell membranes, and then centrifuged at 14 k g for 10 min. The supernatant was then quantified at 10 mg total protein lysate was used for the MHC Class IIP.
Peptide MHC isolation was performed using a modified immunoprecipitation and protein filtration protocol, as previously described. […]
Peptides were eluted using a 130 minute gradient with 10-45% buffer B (70% Acetonitrile, 0.2M acetic acid) from 5-100 minutes and 45-55% from 100-120 minutes at a flow rate of 0.2 mL/min for a flow split of approximately 10,000:1. Peptides were analyzed using a Thermo Q Exactive HF-X Hybrid Quadrupole-Orbitrap mass spectrometer. […] Full-scan mass spectrometry spectra [mass/charge ratio (m/z), 350 to 2,000; resolution, 60,000] were detected in the Orbitrap analyzer after accumulation of ions at 3e6 target value. […]

[1] = tested on: Ctrl or B2m KO MC38 tumors; experiment: Ctrl or B2m KO MC38 tumors in mice; format: in vivo; settings: 0.5 mg/kg/day
From the text: FIGS. 6A-B are graphs showing anti-tumor activity of low-dose HSP90i is dependent on functional MHC Class I expression. Ctrl or B2m KO cells were generated by CRISPR-Cas9 mediated gene editing, and B2m KO cells were confirmed to no longer express MHC-I on the cell surface. FIG. 6A is a line graph showing relative number of viable Ctrl and B2m KO cells measured by standard dye reduction assay following 2-day exposure to increasing concentrations of HSP90i; FIG. 6B is a line graph showing size in mm^3 of Ctrl or B2m KO MC38 tumors in mice treated with vehicle (Veh, solid lines) or 0.5 mg/kg/day HSP90i (dotted lines) over 25 days post implantation.
For CRISPR/Cas9-mediated disruption of B2m, pSpCas9-P2A-GFP plasmid (Addgene #48138) was modified with a control sgRNA sequence ([…]) or an sgRNA targeting B2m ([…]). Log phase MC38 cells were transfected with Ctrl or B2m plasmids using Lipofectamine 2000 (Invitrogen) according to manufacturer's instructions. 24 hours later, single GFP positive cells were sorted into 96-well plates to isolate individual MC38 clones with the desired modification. After 2 weeks, isolated clones were tested by western blot to confirm loss of B2m expression. Ctrl and B2m clones were then passaged through syngeneic mice (C57/B16) to increase the uniformity of tumor establishment and progression in subsequent experiments.

[2] = tested on: IFN-γ receptor KO and HSF1 knockout MC38 cells; experiment: Flow cytometry of MHC-I on IFN-γ receptor KO and Hsf1 KO MC38 cells; format: cell-based, mouse
Experimental: Cell Culture MC38 cells were kindly provided by A. Sharpe from Dana Farber Cancer Institute. Cells were maintained in DMEM supplemented with 10% FBS and penicillin/streptomycin. Cells were confirmed negative for mycoplasma contamination by PCR-based assay. MC38 cells were seeded in 12 well plates at a density of 125,000 cells per well and allowed to attach for 24 hours, and then treated with the indicated concentrations of HSP90i (NVP-HSP990) or IFN-γ. For Ifngra knockout, control or sgRNA targeting Ifngra ([…]) were cloned into pLenti-CRISPRv2 (Addgene #52561). Lentivirus was produced with HEK293T cells and MC38 cells were transduced with standard protocols. Transduced cells were selected with 2 μg/mL puromycin for 72 hours. Selected cells were then treated with DMSO, 60 nM Hsp90i, 10 ng/mL Ifng, or the combination and analyzed by flow cytometry.
For analysis of MHC Class I surface expression, cells were seeded into 12 well plates (125,000/well). 24-hours later, cells were treated with the indicated concentrations of HSP90i (NVP-HSP990) or DMSO vehicle. 72-hours after treatment, cells were dissociated with Accumax (Innovative Cell Technologies) and each treatment condition was distributed into 2 wells of a 96 well plate. […] Cytometric data were plotted and analyzed with FloJo.

COc1cccc(-c2cc(F)ccc2[C@H]2Cc3nc(N)nc(C)c3C(=O)N2)n1 [NVP-HSP990]
MHC-I peptide repertoire compared to IFNγ (MC38 cells): induced a distinct repertoire of MHC-I peptides | number of unique MHC Class I peptides identified (MC38 cells; 50 nM HSP990, 72 hours, 557 from vehicle-treated cells): 1005 | growth kinetics of B2m KO MC38 tumors, treated versus vehicle [1]: nearly identical growth kinetics | growth of Ctrl MC38 tumors [1]: reduced the growth of Ctrl tumors | MHC-I in IFN-γ receptor KO MC38 cells ([2]; 60 nM): induced MHC-I in IFN-γ receptor KO cells | MHC-I induction in HSF1 knockout MC38 cells ([2]; two knockout cell lines): HSF1 was not required for the induction of MHC-I
